Laboratory results as given in patent publication US7709479B1, “Quinazoline derivatives and their use as pharmaceuticals” (AstraZeneca, priority 1999, dated 2010).

Key:
MCF-7 cells [1] = assay: In vitro cell proliferation assay, Assay 1 (CyQUANT cell density); format: cell-based; settings: Homo sapiens, MCF7, 72 h; MCF-7, 3 days with compound; read-out: concentration giving 50% inhibition of cell proliferation
Description: (b) In Vitro Cell Proliferation Assay
These and other assays can be used to determine the ability of a test compound to inhibit the growth of adherent mammalian cell lines, for example the human tumour cell line MCF7.
Assay 1: MCF-7 (ATCC HTB-22) or other adherent cells were typically seeded at 1×10^3 cells per well (excluding the peripheral wells) in DMEM (Sigma Aldrich) without phenol red, plus 10% foetal calf serum, 1% L-glutamine and 1% penicillin/streptomycin in 96 well tissue culture treated clear plates (Costar). The following day (day 1), the media was removed from a no treatment control plate and the plate stored at −80° C. The remaining plates were dosed with compound (diluted from 10 mM stock in DMSO using DMEM (without phenol red, 10% FCS, 1% L-glutamine, 1% penicillin/streptomycin). Untreated control wells were included on each plate. After 3 days in the presence/absence of compound (day 4) the media was removed and the plates stored at −80° C. Twenty four hours later the plates were thawed at room temperature and cell density determined using the CyQUANT cell proliferation assay kit (c-7026/c-7027 Molecular Probes Inc.) according to manufacturers directions. Briefly, 200 μl of a cell lysis/dye mixture (10 μl of 20× cell lysis buffer B, 190 μl of sterile water, 0.25 μl of CyQUANT GR dye) was added to each well and the plates incubated at room temperature for 5 minutes in the dark. The fluorescence of the wells was then measured using a fluorescence microplate reader (gain 70, 2 reads per well, 1 cycle with excitation 485 nm and emission 530 nm using a CytoFluor plate reader (PerSeptive Biosystems Inc.)). The values from day 1 and day 4 (compound treated) together with the values from the untreated cells were used to determine the dilution range of a test compound that gave 50% inhibition of cell proliferation. Compound no. 1 in Table 1 was effective in this test at 8.03 μM and compound no. 101 in Table 4 was effective in this test at 1.06 μM. […] The optical density of the wells was then determined at 690 nm wavelength using a Titertek Multiscan plate reader. […]

MCF-7 cells [2] = assay: In vitro cell proliferation assay, Assay 2 (BrdU incorporation); format: cell-based; settings: Homo sapiens, MCF7; MCF-7, 48 hours with compound, 2 hour labelling; read-out: concentration giving 50% inhibition of BrdU incorporation
MCF7 cells = assay: In vitro cell cycle analysis assay (FACS DNA content); format: cell-based, human; settings: 24 hours
Experimental: This assay determines the ability of a test compound to arrest cells in specific phases of the cell cycle. Many different mammalian cell lines could be used in this assay and MCF7 cells are included here as an example. MCF-7 cells were seeded at 3×10^5 cells per T25 flask (Costar) in 5 ml DMEM (no phenol red 10% FCS, 1% L-glutamine 1% penicillin/streptomycin). Flasks were then incubated overnight in a humidified 37° C. incubator with 5% CO2. The following day 1 ml of DMEM (no phenol red 10% FCS, 1% L-glutamine 1% penicillin/streptomycin) carrying the appropriate concentration of test compound solubilised in DMSO was added to the flask. A no compound control treatments was also included (0.5% DMSO). The cells were then incubated for a defined time (usually 24 hours) with compound. After this time the media was aspirated from the cells and they were washed with 5 ml of prewarmed (37° C.) sterile PBSA, then detached from the flask by brief incubation with trypsin and followed by resuspension in 10 ml of 1% Bovine Serum Albumin (BSA, Sigma-Aldrich Co.) in sterile PBSA. The samples were then centrifuged at 2200 rpm for 10 min. The supernatant was aspirated and the cell pellet was resuspended in 200 μl of 0.1% (w/v) Tris sodium citrate, 0.0564% (w/v) NaCl, 0.03% (v/v) Nonidet NP40, [pH 7.6]. Propridium Iodide (Sigma Aldrich Co.) was added to 40 μg/ml and RNAase A (Sigma Aldrich Co.) to 100 μg/ml. The cells were then incubated at 37° C. for 30 minutes. The samples were centrifuged at 2200 rpm for 10 min, the supernatant removed and the remaining pellet (nuclei) resuspended in 200 μl of sterile PBSA. Each sample was then syringed 10 times using 21 gauge needle. The samples were then transferred to LPS tubes and DNA content per cell analysed by Fluorescence activated cell sorting (FACS) using a FACScan flow cytometer (Becton Dickinson). Typically 25000 events were counted and recorded using CellQuest v1.1 software (Verity Software). Cell cycle distribution of the population was calculated using Modfit software (Verity Software) and expressed as percentage of cells in G0/G1, S and G2/M phases of the cell cycle.

| SMILES | IC50 (MCF-7 cells [1]) [nM] | IC50 (MCF-7 cells [2]) [nM] | % Cells in G1 (MCF7 cells; 25 μM) [%] | % Cells in G2/M (MCF7 cells; 25 μM) [%] | % Cells in S (MCF7 cells; 25 μM) [%] | % Cells in G1 (MCF7 cells; 2.12 μM) [%] | % Cells in G2/M (MCF7 cells; 2.12 μM) [%] | % Cells in S (MCF7 cells; 2.12 μM) [%] |
| --- | --- | --- | --- | --- | --- | --- | --- | --- |
| COc1cc2ncnc(Nc3ccc(NC(=O)c4ccccc4)cc3)c2cc1OC [Compound 1] | 8030 | 1240 | 25.82 | 56.47 | 17.71 | – | – | – |
| COc1cc2c(Nc3ccc(NC(=O)c4ccccc4)cc3)ncnc2cc1OCCCN1CCOCC1 [Compound 101] | 1060 | 159 to 209 | – | – | – | 19.69 | 68.21 | 12.4 |
| COc1cc2ncnc(Nc3ccc(C(=O)NCc4ccc(F)cc4)cc3)c2cc1OC [Compound 557] | 1570 | – | – | – | – | – | – | – |
